In patent US20230027066A1 (Urovant Sciences GmbH, priority 2019, published 2023):

Test system: men and women with overactive bladder
Test: Phase 3 study of vibegron 75 mg vs placebo and tolterodine ER 4 mg, 12 weeks, efficacy (voiding and urine volume diary)
Assay type: in vivo, human
Settings: for First 50% Reduction in Urgency Episodes, Events / First 100% Reduction in UUI Episodes, Events: events of Events/Censored
Description: Enrollment of patients included individuals with OAB Wet (those with UUI, the involuntary loss of urine accompanied by urgency) and OAB Dry (those without UUI). A total of 1,518 patients were randomized across 215 study sites into one of three groups for a 12-week treatment period.
The study consisted of a Screening Period (1 to 5 weeks), a single-blind Run-in Period (2 weeks), a randomized double-blind Treatment Period (12 weeks), and a Follow-up Period (4 weeks).
Tolterodine ER 4 mg was the active control. […] Between the Baseline and Week 12 Visits, patients had study assessments at Week 4 and Week 8.
The Patient Voiding Diary was used by participants (via the eDiary or paper Diary) to record the frequency of daily OAB symptoms including all micturitions, urgency, incontinence, and main reason for incontinence by selecting the respective box for each symptom occurring during the course of a given day and night.
Urine volume data were collected separately by patients using the Urine Volume component of the eDiary, or the paper Urine Volume Chart. The Urine Volume Chart is a tool used in clinical practice and clinical investigation to assess voiding functions over a 24-hour period and is regarded as a useful instrument in the investigation of patients with voiding symptoms. Urine volume may be collected during any one (1) of the 7 Diary Days prior to the visit, and it should be recorded for ˜24 hours starting from the time the patient gets up for the day and continues until the time the patient gets up for the day on the next day.
For the purpose of this study, the number of micturitions was defined as the number of times a patient has voided in the toilet as indicated on the Patient Voiding Diary. Average daily micturitions were calculated using the daily entries in the Patient Voiding Diary, which was completed over the 7 days prior to each study visit. Average daily number of micturitions were calculated as the total number of micturitions that occurred on a Complete Diary Day divided by the number of Complete Diary Days in the Patient Voiding Diary. A complete diary day required confirmation by the patient in the Patient Voiding Diary that all voids and leakages had been recorded for the diary day. Baseline was defined as the average number of micturitions occurring during the last evaluable diary prior to the Baseline Visit.
The number of UUI episodes was defined as the number of times a patient had checked “urge” as the reason for accidental urine leakage. Average daily UUI episodes at each study visit were calculated in the same manner as described above for the micturition endpoint. The UUI endpoint were analyzed using only OAB Wet patients.
For the analysis of the co-primary endpoints (change from baseline in average number of daily micturitions at Week 12 and change from baseline in average number of daily urge urinary incontinence episodes at Week 12, and placebo adjustment of each), a mixed model for repeated measure (MMRM) with restricted maximum likelihood estimation was used. This model corrects for dropout and accounts for the fact that measurements taken on the same patient over time tend to be correlated by using all available information on patients within the same covariate set to derive an estimate of the treatment effect for a dropout-free population. The analysis model for each efficacy endpoint includes terms for treatment, visit, OAB Type (Wet vs Dry), Sex (Female vs Male), Region (US vs Rest of World), baseline score, and interaction of visit by treatment.
Primary inferences were drawn from treatment differences for the changes from baseline derived from the MMRM models at Week 12. As part of secondary objectives, the treatment differences for each post baseline visit were also derived using the same MMRM model. […]

[1] = Week 12, Age ≥ 75 years (posthoc analysis)
[2] = Week 12, No Prior ACH Use in last 12 Mo.
[3] = Week 12, No Prior B3 Agonist Use in last 12 Mo.
[4] = Week 12, Prior ACH Use in last 12 Mo.
[5] = Week 12, Prior B3 Agonist Use in last 12 Mo.

## O=C(Nc1ccc(C[C@@H]2CC[C@H]([C@H](O)c3ccccc3)N2)cc1)[C@@H]1CCc2nccc(=O)n21 [Vibegron, (6S)-N-[4-[[(2S,5R)−5-[(R)-hydroxy(phenyl)methyl]pyrrolidin−2-yl]methyl]phenyl]−4-oxo−7,8-dihydro−6H-pyrrolo[1,2-a]pyrimidine−6-carboxamide]
Week 8
  Change from baseline in average volume voided per micturition, LS Mean (SE): 21.4 (3.20) mL
  Estimated Incidence of Subjects with 50% Decrease from Baseline (urgency episodes): 31.8
  Estimated Incidence of Subjects with 100% Decrease from Baseline (UUI episodes): 21.4
  Total Incontinence, Active - Placebo LS Mean Difference (SE): −0.7 (0.15)
  Urgency episodes, Active - Placebo LS Mean Difference: −0.8
  First 50% Reduction in Urgency Episodes, Events: 166/360
  First 100% Reduction in UUI Episodes, Events: 86/317
Week 12
  Average Daily Number of Total Incontinence, Mean (SD): 1.89 (3.120)
  Average daily number of urgency episodes, Mean (SD): 5.29 (4.500)
  Average volume voided per micturition, Active - Placebo LS Mean Difference: 21.2 mL
  Average volume voided per micturition, Week 12 Mean (SD): 175.3 (81.78) mL
  Change from Baseline in Average Daily Number of Total Incontinence, LS Mean (SE): −2.3 (0.15)
  Change from baseline in average daily number of urgency episodes, LS Mean: −2.7
  Change from baseline in average volume voided per micturition, LS Mean (SE): 23.5 (3.26) mL
  Estimated Incidence of Subjects with 50% Decrease from Baseline (urgency episodes): 43.8
  Estimated Incidence of Subjects with 100% Decrease from Baseline (UUI episodes): 30.0
  Total Incontinence, Active - Placebo LS Mean Difference (SE): −0.7 (0.16)
  Urgency episodes, Active - Placebo LS Mean Difference: −0.7
  First 50% Reduction in Urgency Episodes, Events: 225/301
  First 100% Reduction in UUI Episodes, Events: 119/284
Week 12, <65 yrs
  Micturitions: Week 12 CFB Mean (descriptive statistics): −1.99
Week 12, African American
  UUI: Week 12 CFB Mean (descriptive statistics): −1.61
  UUI: Week 12 CFB Median: −1.26
Week 12, Age < 65 years
  Micturitions: Week 12 CFB LS Mean (95% CI): −1.7
  UUI: Week 12 CFB LS Mean (95% CI): −2.0
  UUI: Week 12 CFB Mean (descriptive statistics): −2.08
Week 12, Age ≥ 65 years
  Micturitions: Week 12 CFB LS Mean (95% CI): −1.9
  UUI: Week 12 CFB LS Mean (95% CI): −2.0
  UUI: Week 12 CFB Mean (descriptive statistics): −1.94
[1]
  Micturitions: Week 12 CFB LS Mean (95% CI): −2.1
  UUI: Week 12 CFB LS Mean (95% CI): −2.0
Week 12, Asian
  UUI: Week 12 CFB Mean (descriptive statistics): −0.07
  UUI: Week 12 CFB Median: 0.00
Week 12, Females
  Micturitions: Week 12 CFB LS Mean (95% CI): −1.9
  Micturitions: Week 12 CFB Mean (descriptive statistics): −2.05
  UUI: Week 12 CFB LS Mean (95% CI): −2.1
  UUI: Week 12 CFB Mean (descriptive statistics): −2.10
Week 12, Males
  Micturitions: Week 12 CFB LS Mean (95% CI): −1.7
  Micturitions: Week 12 CFB Mean (descriptive statistics): −1.97
  UUI: Week 12 CFB LS Mean (95% CI): −1.6
  UUI: Week 12 CFB Mean (descriptive statistics): −1.35
Week 12, Males with BPH
  Micturitions: Week 12 CFB Mean (descriptive statistics): −1.50
  UUI: Week 12 CFB Mean (descriptive statistics): −1.09
Week 12, Males without BPH
  Micturitions: Week 12 CFB Mean (descriptive statistics): −2.26
  UUI: Week 12 CFB Mean (descriptive statistics): −1.51
[2]
  Micturitions: Week 12 CFB Mean (descriptive statistics): −2.05
  UUI: Week 12 CFB Mean (descriptive statistics): −2.12
[3]
  Micturitions: Week 12 CFB Mean (descriptive statistics): −2.01
  UUI: Week 12 CFB Mean (descriptive statistics): −2.03
Week 12, Non-White
  Micturitions: Week 12 CFB LS Mean (95% CI): −1.7
  Micturitions: Week 12 CFB Mean (descriptive statistics): −2.18
  UUI: Week 12 CFB LS Mean (95% CI): −1.3
  UUI: Week 12 CFB Mean (descriptive statistics): −1.14
  UUI: Week 12 CFB Median: −1.00
Week 12, Overall
  Micturitions: Week 12 CFB LS Mean (95% CI): −1.8
  Micturitions: Week 12 CFB Mean (descriptive statistics): −2.04
  UUI: Week 12 CFB LS Mean (95% CI): −2.0
  UUI: Week 12 CFB Mean (descriptive statistics): −2.01
[4]
  Micturitions: Week 12 CFB Mean (descriptive statistics): −1.97
  UUI: Week 12 CFB Mean (descriptive statistics): −1.46
[5]
  Micturitions: Week 12 CFB Mean (descriptive statistics): −2.83
  UUI: Week 12 CFB Mean (descriptive statistics): −1.64
Week 12, Region: Non-US
  Micturitions: Week 12 CFB LS Mean (95% CI): −1.8
  Micturitions: Week 12 CFB Mean (descriptive statistics): −2.26
  UUI: Week 12 CFB LS Mean (95% CI): −2.4
  UUI: Week 12 CFB Mean (descriptive statistics): −2.60
Week 12, Region: US
  Micturitions: Week 12 CFB LS Mean (95% CI): −1.9
  Micturitions: Week 12 CFB Mean (descriptive statistics): −2.01
  UUI: Week 12 CFB LS Mean (95% CI): −1.9
  UUI: Week 12 CFB Mean (descriptive statistics): −1.92
Week 12, White
  Micturitions: Week 12 CFB LS Mean (95% CI): −1.8
  Micturitions: Week 12 CFB Mean (descriptive statistics): −2.01
  UUI: Week 12 CFB LS Mean (95% CI): −2.2
  UUI: Week 12 CFB Mean (descriptive statistics): −2.23
  UUI: Week 12 CFB Median: −1.78
Week 12, co-primary endpoint
  Micturitions, Week 12 LS Mean Change from Baseline (Placebo-Adjusted): −0.5
  UUI Episodes, Week 12 LS Mean Change from Baseline (Placebo-Adjusted): −0.6
Week 12, secondary endpoint
  Total Incontinence Episodes, Week 12 LS Mean Change from Baseline (Placebo-Adjusted): −0.7
  Urgency Episodes, Week 12 LS Mean Change from Baseline (Placebo-Adjusted): −0.7
Week 12, subpopulation Age ≥65 years
  Micturitions, change at Week 12, mean (SD): −2.10 (2.83)
